Data published in US8013159B2, “Quinoline derivatives as EP4 antagonists” (Merck Canada Inc., priority 2005, dated 2011).

Biological target: T1, EP4 receptor (Homo sapiens, UniProt P35408)
T1 construct: expressed in transfected cells; membranes prepared by differential centrifugation
Experiment: Prostanoid receptor binding assay (EP4), membranes of transfected HEK 293(ebna) cells
Conditions: representative data, read-out: Potency in Binding Assay
Procedure: Prostanoid receptor cDNAs corresponding to full length coding sequences are subcloned into the appropriate sites of mammalian expression vectors and transfected into HEK 293(ebna) cells. HEK 293(ebna) cells expressing the individual cDNAs are grown under selection and individual colonies are isolated after 2-3 weeks of growth using the cloning ring method and subsequently expanded into clonal cell lines.
Transfected HEK 293(ebna) cells are maintained in culture, harvested and membranes are prepared by differential centrifugation, following lysis of the cells in the presence of protease inhibitors, for use in receptor binding assays. Prostanoid receptor binding assays (for DP1, DP2 (CRTH2), EP 1, EP2, EP3-11, EP4, FP, IP, and TP) are performed in 10 mM MES/KOH (pH 6.0) (EPs, FP and TP) or 10 mM HEPES/KOH (pH 7.4) (DPs and IP), containing 1 mM EDTA, 2.5-30 mM divalent cation and the appropriate radioligand. Synthetic compounds are added in dimethylsulfoxide which is kept constant at 1% (v/v) in all incubations. The reaction is initiated by addition of membrane protein. Non-specific binding is determined in the presence of 10 μM of the corresponding non-radioactive prostanoid. Incubations are conducted for 60-90 min at room temperature or 30° C. and terminated by rapid filtration. Specific binding is calculated by subtracting non specific binding from total binding. The residual specific binding at each ligand concentration is calculated and expressed as a function of ligand concentration in order to construct sigmoidal concentration-response curves. The binding affinity of the compounds is determined by calculating the equilibrium inhibition constant (Ki) from the equation Ki=InPt/1+[radioligand]/Kd where Kd is the equilibrium dissociation constant for the radioligand:receptor interaction and InPt is the inflection point of the dose-response curves.

T1 sequence (P35408 whole entry): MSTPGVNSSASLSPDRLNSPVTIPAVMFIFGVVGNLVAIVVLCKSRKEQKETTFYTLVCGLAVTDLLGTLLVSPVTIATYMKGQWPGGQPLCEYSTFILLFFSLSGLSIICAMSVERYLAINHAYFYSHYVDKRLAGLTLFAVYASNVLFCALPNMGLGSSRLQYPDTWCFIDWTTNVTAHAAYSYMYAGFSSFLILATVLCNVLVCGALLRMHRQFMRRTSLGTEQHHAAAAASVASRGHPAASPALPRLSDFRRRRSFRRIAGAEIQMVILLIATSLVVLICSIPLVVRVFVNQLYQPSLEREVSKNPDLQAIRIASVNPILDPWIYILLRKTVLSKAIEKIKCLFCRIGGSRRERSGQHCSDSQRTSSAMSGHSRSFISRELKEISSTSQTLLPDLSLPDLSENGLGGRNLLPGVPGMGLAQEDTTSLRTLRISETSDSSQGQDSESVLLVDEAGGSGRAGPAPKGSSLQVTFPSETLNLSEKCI

IC50 [nM]	Structure (SMILES)
0.76	CCOc1c2c(c(OCC)c3ncccc13)CN(c1ccc(CS(=O)(=O)NC(=O)C3(c4ccc(Cl)cc4Cl)CC3)cc1C)C2=O [Example 39, 1-(2,4-dichlorophenyl)-N-{[4-(5,9-diethoxy-6-oxo-6,8-dihydro-7H-pyrrolo[3,4-g]quinolin-7-yl)-3-methylbenzyl]sulfonyl}cyclopropane-carboxamide]
0.83	COc1cccc(OC)c1C1(C(=O)NS(=O)(=O)Cc2ccc(N3Cc4c(c(OCC(F)(F)F)c5cccnc5c4OCC(F)(F)F)C3=O)c(C)c2)CC1 [Example 33, (1-(2,6-dimethoxyphenyl)-N-({3-methyl-4-[6-oxo-5,9-bis(2,2,2-trifluoroethoxy)-6,8-dihydro-7H-pyrrolo[3,4-g]quinolin-7-yl]benzyl}sulfonyl)cyclopropanecarboxamide)]
0.61	COc1cccc(OC)c1C1(C(=O)NS(=O)(=O)Cc2ccc(N3Cc4c(c(OCC(F)(F)F)c5cccnc5c4OCC(F)(F)F)C3=O)c(Cl)c2)CC1 [Example 63, N-({3-chloro-4-[6-oxo-5,9-bis(2,2,2-trifluoroethoxy)-6,8-dihydro-7H-pyrrolo[3,4-g]quinolin-7-yl]benzyl}sulfonyl)-1-(2,6-dimethoxyphenyl)cyclopropane-carboxamide]
0.42	CCOc1c2c(c(OCC)c3ncccc13)CN(c1ccc(CS(=O)(=O)NC(=O)Cc3ccccc3C(F)(F)F)cc1C)C2=O [Example 7, N-{[4-(5,9-diethoxy-6-oxo-6,8-dihydro-7H-pyrrolo[3,4-g]quinolin-7-yl)-3-methylbenzyl]sulfonyl}-2-[2-(trifluoromethyl)phenyl]acetamide]
0.72	CCOc1c2c(c(OCC)c3ncccc13)CN(c1ccc(CS(=O)(=O)NC(=O)Cc3cccc4ccccc34)cc1C)C2=O [Example 19, N-{[4-(5,9-diethoxy-6-oxo-6,8-dihydro-7H-pyrrolo[3,4-g]quinolin-7-yl)-3-methylbenzyl]sulfonyl}-2-(1-naphthyl)acetamide]
0.47	CCOc1c2c(c(OCC)c3ncccc13)CN(c1ccc(CS(=O)(=O)NC(=O)Cc3ccccc3OC)cc1C)C2=O [Example 1, N-{[4-(5,9-diethoxy-6-oxo-6,8-dihydro-7H-pyrrolo[3,4-g]quinolin-7-yl)-3-methylbenzyl]sulfonyl}-2-(2-methoxyphenyl)acetamide]
